# Values of other authors as cited in patent US12239727B2, “Compositions for use in the treatment of photosensitivity” (RepoCeuticals A/S, priority 2018, dated 2025).
# Settings: room temperature, solvent DMSO
smiles,measurement,value
"COc1ccc2[nH]cc(CCNC(C)=O)c2c1 [melatonin, N-acetyl-5-methoxytryptamine]",solubility in DMSO,≥ 232 mg/mL
